The target in this assay is HIV-1 protease (Human immunodeficiency virus type 1 group M subtype B, UniProt P04585). Kind of assay: biochemical. The note with it: for inhibition at 0.123 µM: read-out: HIV-1 Protease % Inhib, dose 0.123 uM. The gist of the method: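 Percent inhibition derived from fluorescent cleavage product separated by filtration after streptavidin-bead capture of intact biotin/FITC substrate. Reaction: enzyme (10 μl, 0.1 μM stock) with substrate (20 μl, 0.2 μM stock) and compound, 1 h at room temperature in dark, pH 5.5 acetate buffer with 1.0 M NaCl and 0.05% NP-40.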

The mark [1] stands for this setting: read-out: HIV-1 Protease % Inhib, dose 1.100 uM.
The mark [2] stands for this setting: read-out: HIV-1 Protease % Inhib, dose 3.300 uM.
Where [3] appears, read: read-out: HIV-1 Protease % Inhib, dose 10.000 uM.
The mark [4] stands for this setting: read-out: HIV-1 Protease % Inhib, dose 30.000 uM.
Setting [5] is: dose 1.100 uM, read-out: HIV-1 Protease % Inhib.
Setting [6] is: dose 3.300 uM, read-out: HIV-1 Protease % Inhib.
[7] abbreviates: dose 10.000 uM, read-out: HIV-1 Protease % Inhib.
Where [8] appears, read: dose 30.000 uM, read-out: HIV-1 Protease % Inhib.
The mark [9] stands for this setting: dose 0.370 uM, read-out: HIV-1 Protease % Inhib.
Where [10] appears, read: read-out: HIV-1 Protease % Inhib, dose 0.370 uM.

Like-named read-outs stand apart in the source and are kept apart here.

For `COc1ccc2c(O)c(C(c3cccc(NC(=O)OCc4ccccc4)c3)C3CC3)c(=O)oc2c1` (centres unmarked) [Example 166, Carbamic acid, [3-[cyclopropyl(4-hydroxy-7-methoxy-2-oxo-2H-1-benzopyran-3-yl)methyl]phenyl]-, phenylmethyl ester], the inhibition at 0.41 µM (read-out: HIV-1 Protease % Inhib, dose 0.410 uM) was less than 10%. For the same compound, where the note is “read-out: HIV-1 Protease % Inhib, dose 1.230 uM”, the inhibition at 1.23 µM was 13.2%. Further, where the note is “read-out: HIV-1 Protease % Inhib, dose 3.700 uM”, the inhibition at 3.7 µM was 33.4%. For the same compound, the inhibition at 11 µM (read-out: HIV-1 Protease % Inhib, dose 11.000 uM) was determined as 58.9%. The inhibition at 33 µM (read-out: HIV-1 Protease % Inhib, dose 33.000 uM) was 89.1%. Also, where the note is “read-out: HIV-1 Protease % Inhib, dose 100.000 uM”, the inhibition at 100 µM amounted to 100%.

For `CCCOc1ccc2c(O)c(C(CC)c3ccccc3)c(=O)oc2c1` (centres unmarked) [Example 169, Coumarin, 4-hydroxy-3-(1-phenylpropyl)-7-propoxy], the inhibition at 1.1 µM under setting [1] was found to be 13.1%. The inhibition at 3.3 µM under setting [2] was determined as 44.4%. Moreover, under setting [3], the inhibition at 10 µM is 76.8%. The inhibition at 30 µM under setting [4] was 99.9%.

For `COCCOCCC1CCCCCc2c1oc(=O)c(C(c1ccccc1)C1CC1)c2O` (centres unmarked) [Example 172, 3-(Cyclopropylphenylmethyl)-5,6,7,8,9,10-hexahydro-4-hydroxy-10-[2-(2-methoxyethoxy)ethyl]-2H-cycloocta[b]pyran-2-one], the inhibition at 1.1 µM under setting [5] turned out to be 31.9%. In addition, the inhibition at 3.3 µM under setting [6] stood at 73.5%. The inhibition at 10 µM under setting [7] was found to be 97.8%. Moreover, under setting [8], the inhibition at 30 µM turned out to be 110%.

For `O=c1oc2c(c(O)c1C(c1ccccc1)C1CC1)CCCCCC2CO` (centres unmarked) [Example 173, 3-(Cyclopropylphenylmethyl)-5,6,7,8,9,10-hexahydro-4-hydroxy-10-(hydroxymethyl)-2H-cycloocta[b]pyran-2-one], the inhibition at 1.1 µM under setting [5] was determined as 15%. Also, the inhibition at 3.3 µM under setting [6] came to 36.5%. The inhibition at 10 µM under setting [7] amounted to 76.7%. Moreover, the inhibition at 30 µM under setting [8] turned out to be 97.2%.

Take `CC(C)(O)C1CCCCCc2c1oc(=O)c(C(c1ccccc1)C1CC1)c2O` (centres unmarked) [Example 175, 3-(Cyclopropylphenylmethyl)-5,6,7,8,9,10-hexahydro-4-hydroxy-10-(1-hydroxy-1-methylethyl)-2H-cycloocta[b]pyran-2-one]: the inhibition at 1.1 µM under setting [5] came to 19.4%. For the same compound, the inhibition at 3.3 µM under setting [6] was 55.5%. Also, the inhibition at 10 µM under setting [7] came to 88.5%. The inhibition at 30 µM under setting [8] turned out to be 105%.

For `COCCOCCC1CCCCc2c1oc(=O)c(C(c1ccccc1)C1CC1)c2O` (centres unmarked) [Example 180, 3-(Cyclopropylphenylmethyl)-6,7,8,9-tetrahydro-4-hydroxy-9-[2-(2-methoxyethoxy)ethyl]-cyclohepta[b]pyran-2(5H)-one], the inhibition at 1.1 µM under setting [5] came out at 31.3%. For the same compound, the inhibition at 3.3 µM under setting [6] was 67.7%. The inhibition at 10 µM under setting [7] turned out to be 94.1%. Moreover, under setting [8], the inhibition at 30 µM is 109%.

Consider `COCCOCCOCCC1CCCCc2c1oc(=O)c(C(c1ccccc1)C1CC1)c2O` (centres unmarked) [Example 181, 3-(Cyclopropylphenylmethyl)-6,7,8,9-tetrahydro-4-hydroxy-9-[2-[2-(2-methoxyethoxy)ethoxy]ethyl]-cyclohepta[b]pyran-2(5H)-one], for which the inhibition at 1.1 µM under setting [5] turned out to be 10.4%. The inhibition at 3.3 µM under setting [6] amounted to 35.1%. Further, the inhibition at 10 µM under setting [7] was found to be 66.6%. Under setting [8], the inhibition at 30 µM stood at 79.3%.

For the compound `O=c1oc2c(c(O)c1C(c1ccccc1)C1CC1)CCCCC2CCC1OCCO1` (centres unmarked) [Example 186, 3-(Cyclopropylphenylmethyl)-9-[2-(1,3-dioxolan-2-yl)ethyl]-6,7,8,9-tetrahydro-4-hydroxy-cyclohepta[b]pyran-2(5H)-one], the inhibition at 1.1 µM under setting [5] is 29.2%. Moreover, under setting [6], the inhibition at 3.3 µM was 64.6%. For the same compound, the inhibition at 10 µM under setting [7] came to 88.7%. Also, under setting [8], the inhibition at 30 µM worked out at 101%.

`O=c1oc2c(c(O)c1C(c1ccccc1)C1CC1)CCCCC2CC1CCCOC1` (centres unmarked) [Example 187, 3-(Cyclopropylphenylmethyl)-6,7,8,9-tetrahydro-4-hydroxy-9-[(tetrahydro-2H-pyran-3-yl)methyl]-cyclohepta[b]pyran-2(5H)-one]: the inhibition at 0.37 µM under setting [9] worked out at 10.6%. Besides, the inhibition at 1.1 µM under setting [5] was found to be 32.9%. Further, the inhibition at 3.3 µM under setting [6] amounted to 68%. Under setting [7], the inhibition at 10 µM worked out at 90%. Besides, under setting [8], the inhibition at 30 µM came out at 90.2%.

Regarding `O=c1oc2c(c(O)c1C(c1ccccc1)C1CC1)CCCCC2CC1CCCCO1` (centres unmarked) [Example 190, 3-(Cyclopropylphenylmethyl)-6,7,8,9-tetrahydro4-hydroxy-9-[(tetrahydro-2H-pyran-2-yl)methyl]-cyclohepta[b]pyran-2(5H)-one], the inhibition at 1.1 µM under setting [5] was determined as 35.9%. The inhibition at 3.3 µM under setting [6] was 79.3%. Also, the inhibition at 10 µM under setting [7] came to 96%. Besides, the inhibition at 30 µM under setting [8] is 102%.

For the compound `O=c1oc2c(c(O)c1C(c1ccccc1)C1CC1)CCCCC2CC1CCOC1` (centres unmarked) [Example 191, 3-(Cyclopropylphenylmethyl)-6,7,8,9-tetrahydro-4-hydroxy-9-[(tetrahydro-3-furanyl)methyl]-cyclohepta[b]pyran-2(5H)-one], the inhibition at 0.37 µM under setting [9] came out at 16.9%. Also, the inhibition at 1.1 µM under setting [5] is 55%. In addition, the inhibition at 3.3 µM under setting [6] was determined as 93.3%. Under setting [7], the inhibition at 10 µM amounted to 101%. For the same compound, under setting [8], the inhibition at 30 µM was found to be 100%.

Consider `CC(O)CC1CCCCc2c1oc(=O)c(C(c1ccccc1)C1CC1)c2O` (centres unmarked) [Example 192, 3-(Cyclopropylphenylmethyl)-6,7,8,9-tetrahydro-4-hydroxy-9-(2-hydroxypropyl)-cyclohepta[b]pyran-2(5H)-one], for which, under setting [5], the inhibition at 1.1 µM was 24.9%. Moreover, the inhibition at 3.3 µM under setting [6] worked out at 68.8%. For the same compound, under setting [7], the inhibition at 10 µM was 102%. Besides, under setting [8], the inhibition at 30 µM is 102%.

With `COCCC1CCCCc2c1oc(=O)c(C(c1ccccc1)C1CC1)c2O` (centres unmarked) [Example 193, 3-(Cyclopropylphenylmethyl)-6,7,8,9-tetrahydro-4-hydroxy-9-(methoxyethyl)-cyclohepta[b]pyran-2(5H)-one], the inhibition at 1.1 µM under setting [5] worked out at 35%. In addition, the inhibition at 3.3 µM under setting [6] is 70.4%. Moreover, the inhibition at 10 µM under setting [7] came out at 97.7%. Under setting [8], the inhibition at 30 µM stood at 105%.

For the compound `C[C@H](NC(=O)OC(C)(C)C)C(=O)Nc1cccc(C(c2c(O)c3c(oc2=O)CCCCCC3)C2CC2)c1` (stereo partly drawn) [Example 198, Carbamic acid, [2-[[3-[cyclopropyl(5,6,7,8,9,10-hexahydro-4-hydroxy-2-oxo-2H-cycloocta[b]pyran-3-yl)methyl]phenyl]amino]-1-(S)-methyl-2-oxyethyl]-, 1,1-dimethylethyl ester], the inhibition at 0.123 µM worked out at 67.1%. Also, the inhibition at 0.37 µM under setting [10] was found to be 91.9%. In addition, the inhibition at 1.1 µM under setting [1] came out at 107%. Further, under setting [2], the inhibition at 3.3 µM was 111%. In addition, under setting [3], the inhibition at 10 µM was determined as 115%. Also, the inhibition at 30 µM under setting [4] was 116%.

As for `CC(C)(C)OC(=O)NCCCC(=O)Nc1cccc(C(c2c(O)c3c(oc2=O)CCCCCC3)C2CC2)c1` (centres unmarked) [Example 201, Carbamic acid, [4-[[3-[cyclopropyl(5,6,7,8,9,10-hexahydro,-hydroxy-2-oxo-2H-cycloocta[b]pyran-3-yl)methyl]phenyl]amino]-4-oxybutyl]-, 1,1-dimethylethyl ester], the inhibition at 0.123 µM came out at 31.2%. The inhibition at 0.37 µM under setting [10] came out at 60.1%. Besides, under setting [1], the inhibition at 1.1 µM was 80%. Moreover, the inhibition at 3.3 µM under setting [2] was found to be 95.4%. For the same compound, the inhibition at 10 µM under setting [3] came out at 100%. Also, under setting [4], the inhibition at 30 µM worked out at 107%.

For the compound `CC(C)(C)OC(=O)N1CCC[C@H]1C(=O)Nc1cccc(C(c2c(O)c3c(oc2=O)CCCCCC3)C2CC2)c1` (stereo partly drawn) [Example 202, 1-(S)-Pyrrolidinecarboxylic acid, 2-[[[3-[cyclopropyl(5,6,7,8,9,10-hexahydro-4-hydroxy-2-oxo-2H-cycloocta[b]pyran-3-yl)methyl]phenyl]amino]carbonyl]-, 1,1-dimethylethyl ester], the inhibition at 0.123 µM was 20.1%. Also, the inhibition at 0.37 µM under setting [10] was 48.1%. Under setting [1], the inhibition at 1.1 µM came to 73.1%. Besides, the inhibition at 3.3 µM under setting [2] amounted to 88.1%. Also, the inhibition at 10 µM under setting [3] worked out at 93.8%. Further, the inhibition at 30 µM under setting [4] was 94.4%.

Regarding `C[C@@H](NC(=O)OC(C)(C)C)C(=O)Nc1cccc(C(c2c(O)c3c(oc2=O)CCCCCC3)C2CC2)c1` (stereo partly drawn) [Example 203, Carbamic acid, [2-[[3-[cyclopropyl(5,6,7,8,9,10-hexahydro-4-hydroxy-2-oxo-2H-cycloocta[b]pyran-3-yl)methyl]phenyl]amino]-1-(R)-methyl-2-oxyethyl]-, 1,1-dimethylethyl ester], the inhibition at 0.123 µM worked out at 15.6%. The inhibition at 0.37 µM under setting [10] amounted to 55.8%. For the same compound, the inhibition at 1.1 µM under setting [1] stood at 81.3%. Further, the inhibition at 3.3 µM under setting [2] was 94.3%. Also, the inhibition at 10 µM under setting [3] came to 104%. The inhibition at 30 µM under setting [4] came to 94.3%.

With `CC(C)(C)OC(=O)N[C@H](Cc1c[nH]cn1)C(=O)Nc1cccc(C(c2c(O)c3c(oc2=O)CCCCCC3)C2CC2)c1` (stereo partly drawn) [Example 204, Carbamic acid, [2-[[3-[cyclopropyl(5,6,7,8,9,10-hexahydro-4-hydroxy-2-oxo-2H-cycloocta[b]pyran-3-yl)methyl]phenyl]amino]-1-(R)-(1H-imidazol-4-ylmethyl)-2-oxoethyl]-, 1,1-dimethylethyl ester], the inhibition at 0.123 µM was 49%. Further, under setting [10], the inhibition at 0.37 µM was found to be 86.5%. Further, under setting [1], the inhibition at 1.1 µM was 107%. In addition, the inhibition at 3.3 µM under setting [2] is 114%. In addition, under setting [3], the inhibition at 10 µM was 117%. Besides, the inhibition at 30 µM under setting [4] worked out at 116%.

Source of the values: patent US5686486A, “4-hydroxy-benzopyran-2-ones and 4-hydroxy-cycloalkyl[b]pyran-2-ones useful to treat retroviral infections” (priority 1995, dated 1997).
